Values quoted from earlier work, collected in patent US20250186613A1 (The Trustees of the University of Pennsylvania, priority 2022, published 2025).
Where two headings read alike, the source gives them in different places.

Columns and labels:
[1] = cited from earlier work
[2] = daily 0.05 mg/kg subcutaneous, cited from earlier work
GLP-2 receptor = target: T1, GLP-2 receptor (Homo sapiens, UniProt O95838); conditions: relative to GLP2; cited from earlier work
T1 sequence (O95838 1-553): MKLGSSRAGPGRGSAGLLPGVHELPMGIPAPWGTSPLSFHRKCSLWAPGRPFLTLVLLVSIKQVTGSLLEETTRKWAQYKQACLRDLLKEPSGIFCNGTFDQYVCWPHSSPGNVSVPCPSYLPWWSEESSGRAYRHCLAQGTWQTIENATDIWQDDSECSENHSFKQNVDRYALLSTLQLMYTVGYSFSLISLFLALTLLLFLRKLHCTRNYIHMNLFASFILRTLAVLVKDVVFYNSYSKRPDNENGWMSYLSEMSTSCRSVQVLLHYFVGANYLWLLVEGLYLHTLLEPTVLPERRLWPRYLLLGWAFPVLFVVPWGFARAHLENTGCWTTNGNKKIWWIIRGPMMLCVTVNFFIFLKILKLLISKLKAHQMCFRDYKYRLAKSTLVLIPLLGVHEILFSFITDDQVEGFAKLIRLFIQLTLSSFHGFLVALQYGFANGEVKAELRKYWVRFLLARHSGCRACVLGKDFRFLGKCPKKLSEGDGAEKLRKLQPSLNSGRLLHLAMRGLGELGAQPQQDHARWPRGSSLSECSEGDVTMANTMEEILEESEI

In the case of `CC[C@H](C)[C@H](NC(=O)[C@H](Cc1ccccc1)NC(=O)[C@H](CC(=O)O)NC(=O)[C@H](CCCN=C(N)N)NC(=O)[C@H](C)NC(=O)[C@H](C)NC(=O)[C@H](CC(C)C)NC(=O)[C@H](CC(N)=O)NC(=O)[C@H](CC(=O)O)NC(=O)[C@H](CC(C)C)NC(=O)[C@@H](NC(=O)[C@@H](NC(=O)[C@H](CC(N)=O)NC(=O)[C@H](CCSC)NC(=O)[C@H](CCC(=O)O)NC(=O)[C@H](CC(=O)O)NC(=O)[C@H](CO)NC(=O)[C@H](Cc1ccccc1)NC(=O)[C@H](CO)NC(=O)CNC(=O)[C@H](CC(=O)O)NC(=O)[C@H](C)NC(=O)[C@@H](N)Cc1cnc[nH]1)[C@@H](C)O)[C@@H](C)CC)C(=O)N[C@@H](CC(N)=O)C(=O)N[C@@H](Cc1c[nH]c2ccccc12)C(=O)N[C@@H](CC(C)C)C(=O)N[C@H](C(=O)N[C@@H](CCC(N)=O)C(=O)N[C@H](C(=O)N[C@@H](CCCCN)C(=O)N[C@H](C(=O)N[C@H](C(=O)N[C@@H](CC(=O)O)C(=O)O)[C@@H](C)O)[C@@H](C)CC)[C@@H](C)O)[C@@H](C)CC` [GLP-2], the serum half-life ([1]; native peptide, cleaved by DPP IV) is listed as 0.083 h.

For `CC[C@H](C)[C@H](NC(=O)[C@H](Cc1ccccc1)NC(=O)[C@H](CC(=O)O)NC(=O)[C@H](CCCNC(=N)N)NC(=O)[C@H](C)NC(=O)[C@H](C)NC(=O)[C@H](CC(C)C)NC(=O)[C@H](CC(N)=O)NC(=O)[C@H](CC(=O)O)NC(=O)[C@H](CC(C)C)NC(=O)[C@@H](NC(=O)[C@@H](NC(=O)[C@H](CC(N)=O)NC(=O)[C@H](CCSC)NC(=O)[C@H](CCC(=O)O)NC(=O)[C@H](CC(=O)O)NC(=O)[C@H](CO)NC(=O)[C@H](Cc1ccccc1)NC(=O)[C@H](CO)NC(=O)CNC(=O)[C@H](CC(=O)O)NC(=O)CNC(=O)[C@@H](N)Cc1c[nH]cn1)[C@@H](C)O)[C@@H](C)CC)C(=O)N[C@@H](CC(N)=O)C(=O)N[C@@H](Cc1c[nH]c2ccccc12)C(=O)N[C@@H](CC(C)C)C(=O)N[C@H](C(=O)N[C@@H](CCC(N)=O)C(=O)N[C@H](C(=O)N[C@@H](CCCCN)C(=O)N[C@H](C(=O)N[C@H](C(=O)N[C@@H](CC(=O)O)C(=O)O)[C@@H](C)O)[C@@H](C)CC)[C@@H](C)O)[C@@H](C)CC` [Teduglutide], the “patients who achieved >20% reduction of PN volume per week from the baseline” value ([2]; 2 years of treatment) is listed as 90%, the “patients who obtained >1 additional days PN off per week from the baseline” value ([2]; 2 years of treatment) is listed as 70% and the PN volume ([2]; throughout 2 years of treatment) is listed as “sustained and continuous reduction of PN volume”. For the same compound, the serum half-life ([1]; A2G mutation for DPP IV resistance) was 1.5 h and the “T½ (h)” value ([1]; in vivo) was 1.5 (0.1) h.

For Apraglutide, the “EC50 (/GLP2)” value (GLP-2 receptor) is listed as 0.5 /GLP2 and the “T½” value ([1]; in vivo) is listed as 30 h.

For Glepaglutide, the “EC50 (/GLP2)” value (GLP-2 receptor) is given as 4 /GLP2 and the “T½” value ([1]; in vivo) is given as 50 h.
